Experimental data from ChEMBL document CHEMBL1144580, “Screening of alpha-helical peptide ligands controlling a calcineurin-phosphatase activity” (Bioorg Med Chem Lett, 2007).
Activity calls are given as the source filed them. No cut-off for these calls is given here.

What was measured:
Homo sapiens [1] = species on record: Homo sapiens; test: Inhibition of calcineurin phosphatase activity in presence of calmodulin at 1 uM
Homo sapiens [2] = species on record: Homo sapiens; test: Inhibition of calcineurin phosphatase activity in absence of calmodulin at 1 uM

Molecule	Activity (Homo sapiens [1])	Activity (Homo sapiens [2])
H-LKKLIRLFTKLLKL-OH	Dose-dependent effect	inactive
H-LKKLLKLLKKLLKL-OH	Dose-dependent effect	inactive
H-LKKLIRLAYKLLKL-OH	Dose-dependent effect	inactive
CC(C)C[C@H](NC(=O)[C@H](CCCCN)NC(=O)[C@H](CC(C)C)NC(=O)[C@H](CC(C)C)NC(=O)[C@H](CCCCN)NC(=O)[C@H](Cc1ccc(O)cc1)NC(=O)[C@H](Cc1ccccc1)NC(=O)[C@H](CC(C)C)NC(=O)[C@H](CCCNC(=N)N)NC(=O)[C@H](C)NC(=O)[C@H](CC(C)C)NC(=O)[C@H](CCCCN)NC(=O)[C@H](CCCCN)NC(=O)[C@@H](N)CC(C)C)C(=O)O	Active	inactive
